Reference: ChEMBL document CHEMBL5214915 (Eur J Med Chem, 2021)
Converted amounts (≈) assume the structure as drawn.

Tests used:
Vero = experiment: Cytotoxicity against African green monkey Vero cells measured after 72 hrs by tetrazolium-based colorimetric MTT assay; format: toxicity, cell-based; conditions: chlorocebus sabaeus
[1] = system: Mycobacterium tuberculosis; experiment: Antibacterial activity against Mycobacterium tuberculosis incubated for 1 to 2 weeks in 7H9/ADC/Tw medium; format: functional; conditions: time 1-2 weeks
[2] = system: Mycobacterium tuberculosis; experiment: Antibacterial activity against Mycobacterium tuberculosis incubated for 1 to 2 weeks in GastFe medium; format: functional; conditions: time 1-2 weeks
[3] = system: Mycobacterium tuberculosis; experiment: Antibacterial activity against Mycobacterium tuberculosis incubated for 1 to 2 weeks in 7H9/DPPC/casitone/Tx medium; format: functional; conditions: time 1-2 weeks
[4] = Mycobacterium tuberculosis, read-out: MIC99

| Structure (SMILES) | CC50 (Vero) [µM] | MIC99 [1, 4] [µM] | MIC99 [2, 4] [µM] | MIC99 [3, 4] [µM] | MIC99 [1] [µM] | MIC99 [2] [µM] | MIC99 [3] [µM] |
| --- | --- | --- | --- | --- | --- | --- | --- |
| Nc1cccc(F)c1C(=O)O | 74 | 5 (≈ 0.776 µg/mL) | – | – | – | – | – |
| Nc1cccc(F)c1C(Nc1ccc(F)cc1)C(F)(F)F (stereo not drawn) | – | 50 (≈ 15.1 µg/mL) | 50 (≈ 15.1 µg/mL) | 50 (≈ 15.1 µg/mL) | – | – | – |
| Nc1cccc(F)c1C(=O)NC1CCCCC1 | – | > 50 | > 50 | > 50 | – | – | – |
| Cc1nnc(-c2c(N)cccc2F)o1 | – | > 50 | > 50 | > 50 | – | – | – |
| Nc1cccc(F)c1C(=O)NNCc1ccccc1 | – | > 50 | > 50 | 50 (≈ 13 µg/mL) | – | – | – |
| COc1ccc(NNC(=O)c2c(N)cccc2F)cc1 | 1310 | 12.5 (≈ 3.44 µg/mL) | 0.78 (≈ 0.215 µg/mL) | 1.56 (≈ 0.429 µg/mL) | – | – | – |
| Nc1cccc(F)c1C(=O)N1CCCC1 | – | > 50 | > 50 | > 50 | – | – | – |
| Nc1cccc(F)c1C(=O)NNc1ccc(Cl)cc1 | 373 | 12.6 (≈ 3.51 µg/mL) | 3.12 (≈ 0.874 µg/mL) | 1.56 (≈ 0.436 µg/mL) | – | – | – |
| NC(=O)c1c(N)cccc1F | – | > 50 | > 50 | > 50 | – | – | – |
| Nc1cccc(F)c1C(=O)NNc1ccccc1 | 2030 | – | – | 1.56 (≈ 0.383 µg/mL) | 12.5 (≈ 3.07 µg/mL) | – | – |
| Nc1cccc(F)c1C(=O)NC1CC1 | – | > 50 | > 50 | > 50 | – | – | – |
| Nc1cccc(F)c1C(=O)NNc1cc(Cl)ccc1Cl | > 1800 | > 50 | 25 (≈ 7.85 µg/mL) | 6.25 (≈ 1.96 µg/mL) | – | – | – |
| Nc1cccc(F)c1C(N1CCSCC1)C(F)(F)F (stereo not drawn) | – | 50 (≈ 14.7 µg/mL) | 50 (≈ 14.7 µg/mL) | 50 (≈ 14.7 µg/mL) | – | – | – |
| Nc1cccc(F)c1C(=O)NC1CCC1 | – | > 50 | > 50 | > 50 | – | – | – |
| CC(C)NC(=O)c1c(N)cccc1F | – | > 50 | > 50 | > 50 | – | – | – |
| Nc1cccc(F)c1C(=O)NNc1ccc(Cl)c(Cl)c1 | > 1800 | 25 (≈ 7.85 µg/mL) | 12.5 (≈ 3.93 µg/mL) | 1.56 (≈ 0.49 µg/mL) | – | – | – |
| CC(C)(C)OC(=O)NNC(=O)c1c(N)cccc1F | – | > 50 | > 50 | > 50 | – | – | – |
| Nc1cccc(F)c1C(=O)NNc1ccc(C(F)(F)F)cc1 | 1360 | 45.5 (≈ 14.2 µg/mL) | 11.4 (≈ 3.56 µg/mL) | 2.84 (≈ 0.89 µg/mL) | – | – | – |
| Nc1cccc(F)c1C(=O)N1CCCCC1 | – | > 50 | > 50 | > 50 | – | – | – |
| Cl.Nc1cccc(F)c1C(=O)NNc1ccc(F)cc1 | > 1800 | – | – | – | – | 1.4 | 1.4 |
| Nc1cccc(F)c1C(=O)NNc1cccc(Cl)c1 | > 1800 | 25 (≈ 6.99 µg/mL) | 6.25 (≈ 1.75 µg/mL) | 1.56 (≈ 0.436 µg/mL) | – | – | – |
| Nc1cccc(F)c1C(=O)NNc1ccccc1Cl | 792 | 25 (≈ 6.99 µg/mL) | 3.12 (≈ 0.874 µg/mL) | 3.12 (≈ 0.874 µg/mL) | – | – | – |

| Structure (SMILES) | CC50 (Vero) [µM] | MIC99 [1, 4] [µM] | MIC99 [2, 4] [µM] | MIC99 [3, 4] [µM] | MIC99 [1] [µM] | MIC99 [2] [µM] | MIC99 [3] [µM] |
| --- | --- | --- | --- | --- | --- | --- | --- |
| Nc1cccc(F)c1C(=O)NO | – | > 50 | > 50 | > 50 | – | – | – |
| Nc1cccc(F)c1C(=O)NNc1cc(Cl)cc(Cl)c1 | – | > 50 | 25 (≈ 7.85 µg/mL) | 6.25 (≈ 1.96 µg/mL) | – | – | – |
| Nc1cccc(F)c1C(N1CCOCC1)C(F)(F)F (stereo not drawn) | – | 50 (≈ 13.9 µg/mL) | 50 (≈ 13.9 µg/mL) | 50 (≈ 13.9 µg/mL) | – | – | – |
| Nc1cccc(F)c1C(=O)NNc1ccc([N+](=O)[O-])cc1[N+](=O)[O-] | – | > 50 | > 50 | > 50 | – | – | – |
| Nc1cccc(F)c1C(=O)NNC1CCCCC1 | 909 | 9.4 (≈ 2.36 µg/mL) | 50 (≈ 12.6 µg/mL) | 9.4 (≈ 2.36 µg/mL) | – | – | – |
| Cc1nc(-c2c(N)cccc2F)no1 | – | > 50 | > 50 | > 50 | – | – | – |
| CONC(=O)c1c(N)cccc1F | – | > 50 | > 50 | > 50 | – | – | – |
| Nc1cccc(F)c1C(=O)Nc1ccc(F)cc1 | – | > 50 | > 50 | > 50 | – | – | – |
| Nc1cccc(F)c1C(=O)NNc1ccc(F)cc1 | 1360 | – | 2.3 (≈ 0.605 µg/mL) | 1.56 (≈ 0.411 µg/mL) | 9.4 (≈ 2.47 µg/mL) | – | – |
| Nc1cccc(F)c1C(=O)NNc1cccc(Cl)c1Cl | > 1800 | 50 (≈ 15.7 µg/mL) | 12.5 (≈ 3.93 µg/mL) | 6.25 (≈ 1.96 µg/mL) | – | – | – |
| Nc1cccc(F)c1C(=O)NNc1cccc(F)c1 | 1360 | 12.5 (≈ 3.29 µg/mL) | 6.25 (≈ 1.65 µg/mL) | 1.56 (≈ 0.411 µg/mL) | – | – | – |
| Nc1cccc(F)c1C(=O)NNc1ccccc1[N+](=O)[O-] | – | > 50 | > 50 | 50 (≈ 14.5 µg/mL) | – | – | – |
| Nc1cccc(F)c1C(=O)N1CCOCC1 | – | > 50 | > 50 | > 50 | – | – | – |
| Cl.Nc1cccc(F)c1C(=O)NNc1ccccc1 | > 1800 | – | – | – | – | 2.3 | 1.3 |
| Nc1cccc(F)c1C(=O)NNc1c(Cl)cc(Cl)cc1Cl | > 1800 | 5 (≈ 1.74 µg/mL) | 1.25 (≈ 0.436 µg/mL) | 0.625 (≈ 0.218 µg/mL) | – | – | – |
| NNC(=O)c1c(N)cccc1F | – | > 50 | > 50 | > 50 | – | – | – |
| Nc1cccc(F)c1-c1nnn[nH]1 | – | > 50 | > 50 | > 50 | – | – | – |
| Nc1cccc(F)c1C(=O)NCCO | – | > 50 | > 50 | > 50 | – | – | – |
| CN1CCN(C(=O)c2c(N)cccc2F)CC1 | – | > 50 | > 50 | > 50 | – | – | – |
| Nc1cccc(F)c1C(=O)NNc1cccc([N+](=O)[O-])c1 | 1300 | > 50 | 25 (≈ 7.26 µg/mL) | 6.25 (≈ 1.81 µg/mL) | – | – | – |
| Nc1cccc(F)c1C(=O)NNc1ccc(Cl)cc1Cl | 1040 | 50 (≈ 15.7 µg/mL) | 6.25 (≈ 1.96 µg/mL) | 3.12 (≈ 0.982 µg/mL) | – | – | – |
| NNC(=O)c1ccncc1 [ISONIAZID] | – | – | – | 0.1 (≈ 0.0137 µg/mL) | – | – | – |
